This data set is described as follows: gradient 5% acetonitrile 3 min, to 50% in 2 min, to 85% in 15 min, held 3 min, 100 µL/min. The following applies: column: Zorbax Extend-C18 2.1 x 50 mm; eluents: water / acetonitrile, 0.1% formic acid. A digest of the protocol:
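Values are retention times taken from adduct peaks that software picked and an analyst inspected. The pure standards were run as mixtures of ~100 molecules on HPLC linked to a quadrupole time-of-flight mass spectrometer, in positive and negative ionization mode. A Zorbax Extend-C18 column (2.1 × 50 mm, 1.8 μm) was used at 100 μL/min with water and acetonitrile, each including 0.1% formic acid.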
With `O=C(NCCN1CCCCCC1)C1CCN(c2cnc(N3CCCC3)nc2)CC1`, the RP-LC retention time came out at 569 s.

`COc1ccc(-n2ncc3c(=O)n(Cc4nc(-c5ccc(OC(F)(F)F)cc5)no4)cnc32)cc1` registered an RP-LC retention time of 1100 s.

Consider `CC(C)CNC(=O)COc1cccc2ccccc12`, for which the RP-LC retention time was determined as 896 s.

`c1cc(CN2CC(Oc3ccc(-c4noc(C5CCOCC5)n4)cc3)C2)cs1` showed an RP-LC retention time of 671 s.

For `Cc1ccc(NC(=O)C2CCN(C(=O)c3ncn4c3COC(c3ccccc3)C4)CC2)cc1` (centres undefined), the RP-LC retention time came to 626 s.

`CCn1nc(-c2csc(S(=O)(=O)N3CCC(C)CC3)c2)ccc1=O` registered an RP-LC retention time of 971 s.

In the case of `CCCNC(=O)N1CCCN(C2=NS(=O)(=O)C(c3ccc(C)cc3)=C2C)CC1`, the RP-LC retention time was found to be 776 s.

With `COCCNC(=O)c1cc(-c2ccccn2)nc2ccccc12`, the RP-LC retention time amounted to 650 s.

For the molecule `Cc1ccc(S(=O)(=O)N2CCc3nc[nH]c3C2)cc1C`, the RP-LC retention time amounted to 611 s.

Molecule `Cn1c(N2CCCC(C(=O)N3CCN(c4ccccn4)CC3)C2)cc(=O)n(C)c1=O` (centres undefined) came in with an RP-LC retention time of 578 s.

`COc1cccc(S(=O)(=O)N2CCC(n3cnnc3-c3ccccc3)CC2)c1` gave an RP-LC retention time of 775 s.

In turn, `CCN(CC)S(=O)(=O)c1ccc2c(c1)cc(C(=O)NCCCN1CCCCC1C)n2C` (centres undefined) returned an RP-LC retention time of 679 s.

Regarding `Cc1cccc(NC(=O)Cn2cc(C(=O)N3CCCC3)c(=O)c3ccc(C)nc32)c1`, the RP-LC retention time worked out at 698 s.

As to `COc1ccc(-c2ccnc3nc(-c4ccccc4OC)nn23)cc1OC`, the RP-LC retention time was 804 s.

Turning to `Cc1ccc(Cl)cc1NC(=O)N1CC=C(c2cn(C)c3ncccc23)CC1`, the RP-LC retention time was determined as 773 s.

Turning to `CC(C)n1cnc(S(=O)(=O)N2CCC(C(=O)N3CCN(c4ccc(F)cc4)CC3)CC2)c1`, the RP-LC retention time came out at 799 s.

Turning to `Cn1nc(CNC(=O)c2cccc(Cl)c2)c2ccccc21`, the RP-LC retention time is 938 s.

`O=C(CN1CCN(CC(=O)c2cccs2)CC1)Nc1cc(C(F)(F)F)ccc1Cl` showed an RP-LC retention time of 625 s.

Take `CCCNC(=O)c1ccc2ncn(C)c(=O)c2c1`: the RP-LC retention time is 596 s.

In the case of `NC(=O)C1CCN([C@H]2CS(=O)(=O)C[C@@H]2S(=O)(=O)c2ccc(F)cc2)CC1`, the RP-LC retention time was found to be 629 s.

For the molecule `Cc1nc(-c2noc(-c3ccc(F)cc3)n2)cn1CC(=O)Nc1ccc(Cl)cc1`, the RP-LC retention time worked out at 922 s.

In the case of `CC1=C(c2ccc(Cl)cc2)S(=O)(=O)N=C1N1CCCN(C(=O)C2CCOC2)CC1` (centres undefined), the RP-LC retention time stood at 733 s.

In turn, `CCc1ccc(NS(=O)(=O)c2cc3n(c2)CCCN(CC)C3=O)cc1` came in with an RP-LC retention time of 801 s.

The molecule `CSc1ccc(CNC(=O)C2CCN(c3ccc(N4CCOCC4)nn3)CC2)cc1` had an RP-LC retention time of 638 s.

The molecule `Cc1cccc(CNC2=NCCNC23CCN(S(=O)(=O)c2ccc4c(c2)CCCC4)CC3)c1` displayed an RP-LC retention time of 854 s.

Turning to `O=C(CN1CCc2ccccc2C1C(=O)N1CCCC1)N1CCN(c2ccccc2)CC1` (centres undefined), the RP-LC retention time was 696 s.

With `CC(C)NC(=O)Nc1cccc(Cl)c1`, the RP-LC retention time was found to be 854 s.

For `CCCCn1cc(S(=O)(=O)N2CCN(c3ccccc3)CC2)c2cccnc21`, the RP-LC retention time is 1120 s.

In turn, `Cc1cc(N2CCN(S(=O)(=O)c3cccc(F)c3)CC2)nc(NC2CCCCC2)n1` came in with an RP-LC retention time of 797 s.

Turning to `CCC(C(=O)NCCc1c[nH]c2ccccc12)n1nc(C)c2nn(-c3ccccc3)c(C)c2c1=O` (centres undefined), the RP-LC retention time came out at 932 s.

`O=S(=O)(c1cc(-c2noc(C3CCCC3)n2)cs1)N1CCOCC1`: the RP-LC retention time was 1200 s.

As for `COc1ccc(-c2cc3nn(CC(=O)Nc4ccc(F)cc4Cl)c(=O)n3c(C)n2)cc1`, the RP-LC retention time was found to be 970 s.

The molecule `CCC(C)Nc1cc(C)nc2c(C)c(-c3ccc(Cl)cc3)nn12` (centres undefined) displayed an RP-LC retention time of 807 s.

In turn, `CCn1ncc(C(=O)N2CC[C@@H]3CN(S(C)(=O)=O)[C@@H]3C2)c1C` came in with an RP-LC retention time of 594 s.

In the case of `CC(C)C(=O)Nc1ccc(C(=O)NCCNS(=O)(=O)c2ccc3c(c2)OCCO3)cc1`, the RP-LC retention time is 661 s.

As to `CC(C)n1c(CC2CCN(C(=O)Nc3ccccc3Cl)C2)nc2cccnc21` (centres undefined), the RP-LC retention time turned out to be 648 s.

Consider `CCCCSc1cc(=O)[nH]c(N)n1`, for which the RP-LC retention time was 700 s.

Take `CC(C)CCNC(=O)N1CCN(c2cc(-c3ccccc3)ncn2)CC1`: the RP-LC retention time was found to be 658 s.

`Cc1nc2ccn(Cc3ccco3)c(=O)c2cc1C(=O)NCCc1ccco1` showed an RP-LC retention time of 720 s.

`O=C(C1=NN(Cc2ccc(F)cc2)c2ccccc2S1(=O)=O)N1CCCCC1` displayed an RP-LC retention time of 885 s.

`O=C(NC1CCCC1)c1ccc2ccnc(N3CCN(c4ccc(Cl)cc4)CC3)c2c1`: the RP-LC retention time came out at 890 s.

`CCc1cccc(NS(=O)(=O)c2cc3n(c2)CCN(CCOC)C3=O)c1` displayed an RP-LC retention time of 750 s.

`COc1ccc(Cl)cc1NC(=O)Cn1c(=O)n(-c2ccc(C)cc2)c(=O)c2c1cc(C)n2C` yielded an RP-LC retention time of 984 s.

`Cc1ccc(CNC(=O)Cn2nc(C)c3nn(-c4ccccc4)c(C)c3c2=O)o1` gave an RP-LC retention time of 816 s.

`COC(=O)C1=C(CN2CCN(C)CC2)NC(=O)NC1c1cc(C)ccc1C` (centres undefined) yielded an RP-LC retention time of 614 s.

`CCc1nc2nccc(-c3ccc(OC)cc3F)n2n1` yielded an RP-LC retention time of 778 s.

Take `O=C(Nc1cccn2ncnc12)c1cccs1`: the RP-LC retention time came out at 690 s.

`CCCCNC(=O)C1(c2ccc(NC(=O)C(C)C)cc2)CCCCC1`: the RP-LC retention time turned out to be 935 s.

In turn, `C=CCN(c1ccccc1)c1nc(C(=O)OCC)nc2ccccc12` displayed an RP-LC retention time of 1000 s.

The molecule `CCCC(=O)N1CCc2c(c(-c3nnc(SC)n3CC)nn2C)C1` showed an RP-LC retention time of 705 s.

As for `CCc1nc(OCC(=O)NCc2ccccc2Cl)c2c(C)c(C)oc2n1`, the RP-LC retention time turned out to be 1020 s.

With `Cc1ccc(CNC(=O)C2(C)CCCN(C(=O)Nc3ccc(C)c(C)c3)C2)cc1` (centres undefined), the RP-LC retention time came to 897 s.

Molecule `c1csc(CN2CCC(Oc3ccccc3-c3nc(-c4cnccn4)no3)C2)c1` (centres undefined) gave an RP-LC retention time of 662 s.

As for `O=C(CN1C(=O)C(C(=O)N2CCCC2)Sc2ccccc21)NCc1ccc(Br)cc1` (centres undefined), the RP-LC retention time came out at 971 s.

Turning to `CCc1nc(-c2csc(S(=O)(=O)N3CCC(C(=O)NCC4CCCO4)CC3)c2)no1` (centres undefined), the RP-LC retention time was found to be 764 s.

As for `O=C(NCc1ccncc1)C1CCCN(c2nc3ccsc3c(=O)n2Cc2ccc(F)cc2)C1` (centres undefined), the RP-LC retention time amounted to 630 s.

Turning to `COCC(=O)N1CC2CN(S(=O)(=O)c3cccc(F)c3)CC(C1)O2`, the RP-LC retention time stood at 660 s.

Consider `O=C(NCc1cccc(C(F)(F)F)c1)c1cn2ccccc2n1`, for which the RP-LC retention time worked out at 748 s.

Take `O=C(Nc1cnc(-c2cccnc2)nc1)C1CCC1`: the RP-LC retention time stood at 659 s.

`O=C(NCc1cccs1)C1CCN(c2nc3ccc(Cl)cc3[nH]2)CC1` registered an RP-LC retention time of 644 s.

`O=C(Nc1ccc(OCC(=O)N2CCN(c3ccccc3)CC2)nc1)C1CC1` had an RP-LC retention time of 730 s.

As to `CCCN1C(=O)COc2ccc(-c3csc(NC(=O)CC)n3)cc21`, the RP-LC retention time is 861 s.

Molecule `COc1ccc(OC)c(N2CC(c3nc(-c4ccc5c(c4)OCO5)no3)CC2=O)c1` (centres undefined) came in with an RP-LC retention time of 886 s.

As to `CN(C)CCCNC(=O)C1CCN(c2nc3ccc(-c4cccc(F)c4)nc3s2)CC1`, the RP-LC retention time turned out to be 691 s.

`COCc1c(C(=O)O)nnn1-c1ccc(OC)cc1` yielded an RP-LC retention time of 677 s.

In turn, `CC(=O)N1CCC([C@@H]2CN(C(=O)c3ccc(Br)o3)C[C@H]2CO)CC1` yielded an RP-LC retention time of 622 s.

Turning to `O=C(NCc1ccc(F)cc1)c1ccc2c(c1)nc1n2CCN(c2ccccc2)C1=O`, the RP-LC retention time worked out at 760 s.

Turning to `CN(C)c1ccc(CNC(=O)C2CCN(S(=O)(=O)c3ccc4[nH]c(=O)ccc4c3)CC2)cc1`, the RP-LC retention time amounted to 580 s.

Molecule `COc1ccc(C2Cn3nnc(-c4nc(-c5ccccc5F)no4)c3CO2)cc1` (centres undefined) showed an RP-LC retention time of 1090 s.

`O=C(CC1(O)C(=O)Nc2c(Cl)cc(Cl)cc21)c1ccc([N+](=O)[O-])cc1` (centres undefined): the RP-LC retention time is 800 s.

For `COc1ccc(N(Cc2nnc3n2CCCCC3)C(=O)Nc2ccccc2OC)cc1`, the RP-LC retention time was 772 s.

With `CC(C)c1ccc(C2C(C(=O)c3ccccc3)C(=O)C(=O)N2CCCN2CCOCC2)cc1` (centres undefined), the RP-LC retention time turned out to be 725 s.

Molecule `CCc1ccc(-c2noc(Cn3c(=O)n(-c4ccc(C)cc4)c(=O)c4sccc43)n2)cc1` showed an RP-LC retention time of 1160 s.

Molecule `CCN(CC)C(=O)c1ccc2c(c1)N(CC(=O)N1CCN(c3ncccn3)CC1)C(=O)CO2` registered an RP-LC retention time of 666 s.

Consider `COc1ccc(-n2c(=O)c3sccc3n(Cc3nc(-c4ccc(C)c(C)c4)no3)c2=O)cc1`, for which the RP-LC retention time worked out at 1090 s.

In the case of `Cc1ccc(CNC(=O)CCn2nc(C)c3c(C)n(-c4ccccc4)nc3c2=O)o1`, the RP-LC retention time was 734 s.

Take `O=C(NCC1CC1)C1CCN(C(=O)c2ncn3c2COC(c2ccc(F)cc2)C3)CC1` (centres undefined): the RP-LC retention time was found to be 699 s.

In turn, `CCCNC(=O)Nc1ccc(C)cc1C` showed an RP-LC retention time of 827 s.

Take `CCCn1c(CCNC(=O)c2c(F)cccc2F)nc2cccnc21`: the RP-LC retention time came out at 694 s.
